Common to all, as to format: biochemical
For test [1], the target named is PRMT5-MEP50 (Homo sapiens, UniProt O14744). In words: PRMT5 assay (3H-SAM flashplate scintillation). Conditions: PRMT5-MEP50 2.5 nM, histone H4 peptide 100 nM, 3H-SAM 250 nM, 60 min. The method, boiled down: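 Radiometric methyltransferase read-out: after 60 min reaction, excess unlabelled SAM (15 μM) stops turnover and biotinylated H4 peptide (100 nM) carrying 3H-methyl from 250 nM 3H-SAM is captured on streptavidin flashplates (2 h, 25° C) for scintillation counting. Enzyme, 2.5 nM PRMT5-MEP50, was preincubated 5 min with compound in pH 8.0 Tris buffer with DTT and Tween.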
PRMT5-MEP50, sequence (O14744 whole entry): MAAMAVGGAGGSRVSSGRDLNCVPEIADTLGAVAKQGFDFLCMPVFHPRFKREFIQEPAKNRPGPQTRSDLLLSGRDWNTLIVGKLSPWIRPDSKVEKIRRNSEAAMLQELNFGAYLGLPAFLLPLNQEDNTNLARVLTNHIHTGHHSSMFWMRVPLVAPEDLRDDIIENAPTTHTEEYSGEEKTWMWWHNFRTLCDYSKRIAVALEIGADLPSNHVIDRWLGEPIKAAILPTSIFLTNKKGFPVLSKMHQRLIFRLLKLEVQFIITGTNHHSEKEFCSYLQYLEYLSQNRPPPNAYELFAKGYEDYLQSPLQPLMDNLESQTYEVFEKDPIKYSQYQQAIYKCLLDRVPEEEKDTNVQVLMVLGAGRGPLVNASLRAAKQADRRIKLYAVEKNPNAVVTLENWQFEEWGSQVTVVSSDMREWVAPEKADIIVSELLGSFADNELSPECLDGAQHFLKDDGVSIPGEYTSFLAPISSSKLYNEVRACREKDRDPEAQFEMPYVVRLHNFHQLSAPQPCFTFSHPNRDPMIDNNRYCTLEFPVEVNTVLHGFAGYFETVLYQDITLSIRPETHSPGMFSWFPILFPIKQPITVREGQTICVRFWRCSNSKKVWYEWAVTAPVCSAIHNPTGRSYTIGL
PRMT5-MEP50, sequence (Q9BQA1 whole entry partner): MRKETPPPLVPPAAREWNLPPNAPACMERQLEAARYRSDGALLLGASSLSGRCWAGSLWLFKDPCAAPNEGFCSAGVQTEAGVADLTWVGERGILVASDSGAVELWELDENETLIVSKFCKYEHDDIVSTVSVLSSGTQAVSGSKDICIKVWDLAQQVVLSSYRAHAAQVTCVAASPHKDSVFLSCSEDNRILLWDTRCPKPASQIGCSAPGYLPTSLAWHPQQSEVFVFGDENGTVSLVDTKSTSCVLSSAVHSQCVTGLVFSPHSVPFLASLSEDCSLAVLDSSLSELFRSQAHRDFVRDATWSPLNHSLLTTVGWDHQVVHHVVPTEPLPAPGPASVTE

Test [2] has as its target METTL3/METTL14 (Homo sapiens, UniProt Q86U44). Description: METTL3-14 standard enzyme assay (3H-SAM flashplate scintillation). Conditions: METTL3/METTL14 2.5 nM, RNA 100 nM, 3H-SAM 100 nM, 30 min. In outline:
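Radiometric methylation readout: biotinylated RNA substrate UCUGGACUAAA and 3H-SAM, each 100 nM final, reacted 30 min at ambient temperature with 2.5 nM enzyme complex after 5 min compound preincubation (HEPES pH 7.5 buffer, KCl, MgCl2, DTT). Excess unlabelled SAM (15 μM) stopped reactions before streptavidin flashplate capture.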

Test [3] has as its target T1, METTL16 (Homo sapiens, UniProt Q86W50).
T1 sequence (Q86W50 1-562): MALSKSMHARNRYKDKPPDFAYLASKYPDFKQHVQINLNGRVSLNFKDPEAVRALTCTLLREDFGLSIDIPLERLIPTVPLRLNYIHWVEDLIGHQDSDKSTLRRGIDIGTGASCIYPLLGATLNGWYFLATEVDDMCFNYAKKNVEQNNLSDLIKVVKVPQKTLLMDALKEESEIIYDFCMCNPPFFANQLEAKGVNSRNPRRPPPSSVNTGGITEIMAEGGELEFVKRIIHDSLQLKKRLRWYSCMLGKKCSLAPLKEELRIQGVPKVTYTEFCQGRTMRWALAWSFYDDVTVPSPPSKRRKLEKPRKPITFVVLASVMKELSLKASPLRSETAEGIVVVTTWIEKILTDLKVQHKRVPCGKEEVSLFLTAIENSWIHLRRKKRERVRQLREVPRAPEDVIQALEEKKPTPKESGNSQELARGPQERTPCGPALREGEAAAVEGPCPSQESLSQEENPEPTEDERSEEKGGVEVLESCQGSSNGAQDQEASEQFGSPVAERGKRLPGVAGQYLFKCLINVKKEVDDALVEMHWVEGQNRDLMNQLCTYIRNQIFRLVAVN
Description: METTL16 assay (3H-SAM flashplate scintillation). Conditions: METTL16 100 nM, RNA 50 nM, 3H-SAM 200 nM, SAM 800 nM, 20 min. In outline: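 Radiometric methyltransferase reaction at ambient temperature in 20 mM HEPES pH 7.5, 50 mM KCl, 1 mM DTT, with 100 nM enzyme preincubated 5 min with compound. It was started with 50 nM 3′-biotinylated RNA, 200 nM 3H-SAM plus 800 nM cold SAM, run 20 min, then quenched with excess cold SAM. Product was captured on streptavidin flashplates and scintillation-counted.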

METTL3/METTL14, sequence (Q86U44 whole entry, species assumed): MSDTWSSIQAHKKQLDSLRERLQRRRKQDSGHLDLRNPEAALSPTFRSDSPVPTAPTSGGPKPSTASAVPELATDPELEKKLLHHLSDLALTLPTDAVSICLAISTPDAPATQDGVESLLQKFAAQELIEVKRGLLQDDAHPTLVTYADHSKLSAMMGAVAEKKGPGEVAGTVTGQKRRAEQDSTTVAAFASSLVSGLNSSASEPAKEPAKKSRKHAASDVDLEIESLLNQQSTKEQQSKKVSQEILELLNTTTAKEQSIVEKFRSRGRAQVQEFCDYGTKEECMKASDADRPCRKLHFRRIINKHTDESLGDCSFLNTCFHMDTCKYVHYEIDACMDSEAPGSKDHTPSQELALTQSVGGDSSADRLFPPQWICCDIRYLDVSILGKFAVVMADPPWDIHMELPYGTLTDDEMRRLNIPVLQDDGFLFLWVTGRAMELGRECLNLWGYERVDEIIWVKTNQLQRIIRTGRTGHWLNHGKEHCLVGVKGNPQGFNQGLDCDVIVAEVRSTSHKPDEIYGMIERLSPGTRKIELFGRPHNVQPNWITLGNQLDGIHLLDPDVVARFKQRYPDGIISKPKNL
METTL3/METTL14, sequence (Q9HCE5 whole entry partner, species assumed): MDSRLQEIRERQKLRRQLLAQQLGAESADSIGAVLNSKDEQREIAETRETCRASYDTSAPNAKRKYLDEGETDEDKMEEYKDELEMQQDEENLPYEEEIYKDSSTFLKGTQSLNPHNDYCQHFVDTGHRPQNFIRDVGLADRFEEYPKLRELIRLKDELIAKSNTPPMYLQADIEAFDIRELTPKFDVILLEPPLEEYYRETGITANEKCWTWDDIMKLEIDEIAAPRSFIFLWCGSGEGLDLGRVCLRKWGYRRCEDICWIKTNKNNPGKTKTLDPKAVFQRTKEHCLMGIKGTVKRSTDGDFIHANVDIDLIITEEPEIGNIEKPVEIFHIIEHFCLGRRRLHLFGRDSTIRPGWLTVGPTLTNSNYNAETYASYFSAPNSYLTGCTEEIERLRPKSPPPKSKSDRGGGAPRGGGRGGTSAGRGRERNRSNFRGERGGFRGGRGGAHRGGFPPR

In the case of `C[C@@H]1CCN1c1ccc2ccc(OCc3cncc(-n4cc(C5CCCC5)c5c(N)ncnc54)c3)cc2n1` [Compound I-124], the 50% inhibitory concentration (IC50) (as a rule, the concentration needed to halve the response being measured) in test [1] was above 1000 nM; in test [2], 10 to 100 nM; in test [3], above 1000 nM.
In the case of `CCNc1ccc2ccc(OCc3cccc(-n4cc(Cl)c5c(N)ncnc54)c3)cc2n1` [Compound I-61], the IC50 is above 1000 nM in test [1], 10 to 100 nM in test [2] and above 1000 nM in test [3].
`CNc1ccc2ccc(OCc3cncc(-n4cc([C@H]5CCCO5)c5c(N)ncnc54)c3)cc2n1` [Compound I-112]: the IC50 in test [1] is above 1000 nM; in test [2], below 10 nM; in test [3] it was above 1000 nM.
Regarding `CCNc1ccc2ccc(OCc3cncc(-n4cc(-c5ccn(C)n5)c5c(N)ncnc54)c3)cc2n1` [Compound I-128], the IC50 in test [1] was above 1000 nM; in test [2] it was below 10 nM; in test [3], above 1000 nM.
Consider `Nc1nc2cc(OCc3cncc(-n4ccc5c(N)ncnc54)c3)ccc2cc1Br` [Compound I-111], for which the IC50 in test [1], in test [2] and in test [3] was above 1000 nM throughout.
Consider `CNc1ccc2ccc(OCc3cc(Br)cc(-n4cc(Cl)c5c(N)ncnc54)c3)cc2n1` [Compound I-75], for which the figures for the IC50 in test [1], in test [2] and in test [3] were above 1000 nM, 100 to 1000 nM and above 1000 nM, respectively.
As to `CNc1ccc2ccc(OCc3cncc(-n4cc(CC5CC5)c5c(N)ncnc54)c3)cc2n1` [Compound I-29], the 50% inhibitory concentration (IC50) was above 1000 nM in test [1], below 10 nM in test [2] and above 1000 nM in test [3].
For `CCc1cc(N(C)CCOC)c2ccc(CCc3cncc(-n4cc(-c5ccn(C)n5)c5c(N)ncnc54)c3)cc2n1` [Compound I-117], the figures for the IC50 in test [1], in test [2] and in test [3] were above 1000 nM, below 10 nM and above 1000 nM, respectively.
Regarding `CNc1ccc2ccc(OCc3cncc(-n4cc(-c5ccnn5C)c5c(N)ncnc54)c3)cc2n1` [Compound I-35], the figures for the half-maximal inhibitory concentration (IC50) in test [1], in test [2] and in test [3] were above 1000 nM, below 10 nM and above 1000 nM, respectively.
For the compound `CCc1cc(NCCCN(C)C)c2ccc(CCc3cncc(-n4ccc5c(N)ncnc54)c3)cc2n1` [Compound I-127], the IC50 was above 1000 nM in test [1], below 10 nM in test [2] and above 1000 nM in test [3].
In the case of `Cn1ccc(-c2cn(-c3cncc(CCc4ccc5ccc(N)nc5c4)c3)c3ncnc(N)c23)n1` [Compound I-114], the results for the IC50 in test [1], in test [2] and in test [3] were above 1000 nM, below 10 nM and above 1000 nM, respectively.
For the compound `CCc1cc(N2CCNCC2)c2ccc(OCc3cncc(-n4cc(-c5ccn(C)n5)c5c(N)ncnc54)c3)cc2n1` [Compound I-121], the IC50 in test [1] is above 1000 nM; in test [2], below 10 nM; in test [3], above 1000 nM.
Take `CNc1ccc2ccc(OCc3cncc(-n4cc(-c5ccc(C)o5)c5c(N)ncnc54)c3)cc2n1` [Compound I-234]: the values for the IC50 in test [1], in test [2] and in test [3] were above 1000 nM, below 10 nM and above 1000 nM, respectively.
Consider `CNc1ccc2ccc(OCc3cncc(-n4cc(Cl)c5c(N)ncnc54)c3)cc2n1` [Compound I-74, 7-((5-(4-amino-5-chloro-7H-pyrrolo[2,3-d]pyrimidin-7-yl)pyridin-3-yl)methoxy)-N-methylquinolin-2-amine], for which the half-inhibitory concentration (IC50) was above 1000 nM in test [1], below 10 nM in test [2] and above 1000 nM in test [3].
With `Cn1ccc(-c2cn(-c3cncc(CCc4ccc5cc(Br)c(N)nc5c4)c3)c3ncnc(N)c23)n1` [Compound I-123], the IC50 in test [1], in test [2] and in test [3] was above 1000 nM throughout.
On to `CNc1ccc2ccc(OCc3cncc(-n4cc(-c5ncco5)c5c(N)ncnc54)c3)cc2n1` [Compound I-235], for which the IC50 was above 1000 nM in test [1], below 10 nM in test [2] and above 1000 nM in test [3].
In the case of `CNc1ccc2cc(CCc3cccc(-n4cc(Cl)c5c(N)ncnc54)c3)ccc2n1` [Compound I-70], the IC50 was above 1000 nM in test [1], 100 to 1000 nM in test [2] and above 1000 nM in test [3].
For the compound `CNc1ccc2ccc(OCc3cc(CO)cc(-n4cc(Cl)c5c(N)ncnc54)c3)cc2n1` [Compound I-34], the half-inhibitory concentration (IC50) in test [1] is above 1000 nM; in test [2] it was below 10 nM; in test [3], above 1000 nM.
As for `CNc1ccc2ccc(CCc3cncc(-n4cc(F)c5c(N)ncnc54)c3)cc2n1` [Compound I-116], the IC50 in test [1] was above 1000 nM; in test [2], below 10 nM; in test [3] it was above 1000 nM.
For `CCc1cc(N2CCC(F)(F)CC2)c2ccc(OCc3cncc(-n4ccc5c(N)ncnc54)c3)cc2n1` [Compound I-118], the IC50 in test [1] was above 1000 nM; in test [2] it was below 10 nM; in test [3], above 1000 nM.
As for `CNc1ccc2ccc(OCc3cncc(-n4cc(C(C)C5CC5)c5c(N)ncnc54)c3)cc2n1` (stereo not drawn) [Compound I-120], the IC50 in test [1] is above 1000 nM; in test [2] it was below 10 nM; in test [3], above 1000 nM.
Turning to `CNc1ccc2ccc(CCc3cncc(-n4ccc5c(N)ncnc54)c3)cc2n1` [Compound I-30], the figures for the IC50 in test [1], in test [2] and in test [3] were above 1000 nM, 10 to 100 nM and above 1000 nM, respectively.
Regarding `CCc1cc(NC)c2ccc(CCc3cncc(-n4cc(-c5ccn(C)n5)c5c(N)ncnc54)c3)cc2n1` [Compound I-122], the IC50 is above 1000 nM in test [1], below 10 nM in test [2] and above 1000 nM in test [3].
Turning to `CNc1ccc2ccc(OCc3cncc(-n4cc([C@@H]5CCCO5)c5c(N)ncnc54)c3)cc2n1` [Compound I-113], the IC50 in test [1] was above 1000 nM; in test [2], below 10 nM; in test [3] it was above 1000 nM.
On to `CNc1ccc2ccc(OCc3cncc(-n4cc(C5CCCC5)c5c(N)ncnc54)c3)cc2n1` [Compound I-58], for which the half-maximal inhibitory concentration (IC50) is above 1000 nM in test [1], below 10 nM in test [2] and above 1000 nM in test [3].
In the case of `CNc1ccc2ccc(OCc3cccc(-n4cc(Cl)c5c(N)ncnc54)c3)cc2n1` [Compound I-87], the IC50 in test [1] is above 1000 nM; in test [2], 10 to 100 nM; in test [3], above 1000 nM.
With `CCc1cc(NCCOC)c2ccc(CCc3cncc(-n4cc(-c5ccn(C)n5)c5c(N)ncnc54)c3)cc2n1` [Compound I-115], the IC50 in test [1] was above 1000 nM; in test [2] it was below 10 nM; in test [3], above 1000 nM.
As for `CNc1ccc2ccc(OCc3cncc(-n4c(C)cc5c(N)ncnc54)c3)cc2n1` [Compound I-36], the IC50 in test [1] is above 1000 nM; in test [2], 10 to 100 nM; in test [3], above 1000 nM.
For `Nc1ncnc2c1c(C1CCCO1)cn2-c1cncc(CCc2ccc3ccc(N4CCC4)nc3c2)c1` (stereo not drawn) [Compound I-126], the values for the IC50 in test [1], in test [2] and in test [3] were above 1000 nM, below 10 nM and above 1000 nM, respectively.

The values are drawn from patent US20220372040A1, “METTL3 MODULATORS” (Accent Therapeutics, Inc., priority 2020, published 2022).
